Data reported in ChEMBL document CHEMBL5113400, “Design, synthesis, and biological evaluation of trizole-based heteroaromatic derivatives as Bcr-Abl kinase inhibitors” (Eur J Med Chem, 2022).
pIC50: −log10 of the molar value.

Assays:
K562 [1] = assay: Induction of apoptosis in human K562 cells assessed as late apoptotic cells at 5 uM incubated for 48 hrs by Annexin V-FITC/PI staining based flow cytometry analysis (Rvb= 14.66%); format: functional
[2] = molecular target: T1, Tyrosine-protein kinase ITK/TSK (Homo sapiens) (UniProt Q08881); assay: Inhibition of recombinant human ITK at 10 uM for 10 mins followed by substrate addition in presence of ATP and measured after 100 mins by ADP-Glo kinase assay; conditions: time 110.0 min
T1 sequence (whole entry): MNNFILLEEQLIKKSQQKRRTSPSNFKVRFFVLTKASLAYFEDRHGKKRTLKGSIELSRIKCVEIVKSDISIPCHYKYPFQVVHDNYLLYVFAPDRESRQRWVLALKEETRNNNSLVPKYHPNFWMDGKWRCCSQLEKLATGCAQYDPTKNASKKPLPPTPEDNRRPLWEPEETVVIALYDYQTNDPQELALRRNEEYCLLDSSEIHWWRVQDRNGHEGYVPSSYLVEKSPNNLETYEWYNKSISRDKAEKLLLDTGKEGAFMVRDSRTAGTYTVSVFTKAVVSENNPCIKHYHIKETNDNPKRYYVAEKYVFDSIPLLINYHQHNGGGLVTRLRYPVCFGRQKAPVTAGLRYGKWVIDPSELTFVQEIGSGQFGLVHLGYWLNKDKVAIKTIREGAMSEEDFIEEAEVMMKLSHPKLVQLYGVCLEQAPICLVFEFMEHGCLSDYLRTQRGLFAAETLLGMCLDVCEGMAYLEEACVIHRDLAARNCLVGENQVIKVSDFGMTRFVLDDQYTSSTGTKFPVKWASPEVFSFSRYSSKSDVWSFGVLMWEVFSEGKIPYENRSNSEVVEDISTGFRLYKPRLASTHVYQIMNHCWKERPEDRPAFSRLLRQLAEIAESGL

K562 [3] = assay: Induction of apoptosis in human K562 cells assessed as necrotic cells at 10 uM incubated for 48 hrs by Annexin V-FITC/PI staining based flow cytometry analysis (Rvb= 0.09%); format: functional
K562 [4] = assay: Induction of apoptosis in human K562 cells assessed as early apoptotic cells at 10 uM incubated for 48 hrs by Annexin V-FITC/PI staining based flow cytometry analysis (Rvb= 4.35%); format: functional
BaF3 [5] = assay: Antiproliferative activity against mouse BaF3 cells expressing Bcr-Abl T315I mutant assessed as inhibition of cell growth incubated for 72 hrs by CellTiter-Glo luminescent assay; format: functional, cell-based; conditions: BaF3, 72 h
K562 [6] = assay: Induction of apoptosis in human K562 cells assessed as early apoptotic cells at 1 uM incubated for 48 hrs by Annexin V-FITC/PI staining based flow cytometry analysis (Rvb= 4.35%); format: functional
[7] = molecular target: Platelet-derived growth factor receptor alpha (Homo sapiens) (UniProt P16234); assay: Inhibition of recombinant human PDGFRalpha at 10 uM for 10 mins followed by substrate addition in presence of ATP and measured after 100 mins by ADP-Glo kinase assay; conditions: time 110.0 min
Platelet-derived growth factor receptor alpha (Homo sapiens), sequence (P16234 whole entry): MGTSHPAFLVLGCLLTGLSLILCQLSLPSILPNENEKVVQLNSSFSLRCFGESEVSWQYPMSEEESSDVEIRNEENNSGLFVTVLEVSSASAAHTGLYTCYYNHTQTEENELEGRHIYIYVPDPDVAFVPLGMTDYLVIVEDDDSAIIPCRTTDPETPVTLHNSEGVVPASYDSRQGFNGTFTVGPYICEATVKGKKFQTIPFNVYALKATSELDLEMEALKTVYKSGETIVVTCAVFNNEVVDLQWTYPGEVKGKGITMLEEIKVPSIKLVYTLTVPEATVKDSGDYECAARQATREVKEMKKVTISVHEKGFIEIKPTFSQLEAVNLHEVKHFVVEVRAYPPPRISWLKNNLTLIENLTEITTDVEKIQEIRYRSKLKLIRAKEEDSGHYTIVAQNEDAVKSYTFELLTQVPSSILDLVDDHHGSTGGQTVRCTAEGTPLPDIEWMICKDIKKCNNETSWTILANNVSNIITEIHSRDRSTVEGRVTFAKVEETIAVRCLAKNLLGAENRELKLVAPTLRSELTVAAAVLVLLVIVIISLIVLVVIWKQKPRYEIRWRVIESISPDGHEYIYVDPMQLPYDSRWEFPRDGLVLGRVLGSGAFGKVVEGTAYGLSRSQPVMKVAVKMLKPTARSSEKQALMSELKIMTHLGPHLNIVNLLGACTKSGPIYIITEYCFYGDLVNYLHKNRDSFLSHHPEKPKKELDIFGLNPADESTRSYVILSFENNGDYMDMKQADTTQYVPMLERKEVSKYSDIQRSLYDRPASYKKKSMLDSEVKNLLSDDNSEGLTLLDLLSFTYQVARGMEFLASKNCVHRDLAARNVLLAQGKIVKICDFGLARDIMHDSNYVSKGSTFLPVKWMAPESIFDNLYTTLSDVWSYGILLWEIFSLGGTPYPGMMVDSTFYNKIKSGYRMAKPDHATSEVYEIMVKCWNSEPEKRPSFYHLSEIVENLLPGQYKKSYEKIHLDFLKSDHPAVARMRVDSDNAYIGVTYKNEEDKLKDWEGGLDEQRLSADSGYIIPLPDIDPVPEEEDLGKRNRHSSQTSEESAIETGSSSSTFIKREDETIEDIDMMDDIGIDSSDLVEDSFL

K562 [8] = assay: Induction of apoptosis in human K562 cells assessed as necrotic cells at 1 uM incubated for 48 hrs by Annexin V-FITC/PI staining based flow cytometry analysis (Rvb= 0.09%); format: functional
K562 [9] = assay: Induction of cell cycle arrest in human K562 cells assessed as accumulation at G2/M phase at 1 to 10 uM incubated for 48 hrs by PI staining based flow cytometry (Rvb= 12.23%); format: functional; conditions: dose 1-10 µM
[10] = molecular target: Dual specificity protein kinase CLK1 (Homo sapiens) (UniProt P49759); assay: Inhibition of recombinant human CLK1 at 10 uM for 10 mins followed by substrate addition in presence of ATP and measured after 100 mins by ADP-Glo kinase assay; conditions: time 110.0 min
Dual specificity protein kinase CLK1 (Homo sapiens), sequence (P49759 whole entry, looked up): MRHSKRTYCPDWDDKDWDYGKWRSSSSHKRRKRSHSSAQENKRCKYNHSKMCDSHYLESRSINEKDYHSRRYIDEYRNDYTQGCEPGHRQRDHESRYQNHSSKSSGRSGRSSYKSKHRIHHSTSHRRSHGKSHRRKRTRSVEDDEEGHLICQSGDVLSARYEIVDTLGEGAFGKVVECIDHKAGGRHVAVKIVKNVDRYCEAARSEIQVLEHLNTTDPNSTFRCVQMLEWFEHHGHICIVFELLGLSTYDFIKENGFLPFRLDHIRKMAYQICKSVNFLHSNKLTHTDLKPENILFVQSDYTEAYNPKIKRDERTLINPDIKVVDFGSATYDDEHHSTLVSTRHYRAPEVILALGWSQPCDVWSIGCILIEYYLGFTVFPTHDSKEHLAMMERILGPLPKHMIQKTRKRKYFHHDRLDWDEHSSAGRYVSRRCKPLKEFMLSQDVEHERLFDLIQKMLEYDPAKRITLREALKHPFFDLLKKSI

[11] = molecular target: BDNF/NT-3 growth factors receptor (Homo sapiens) (UniProt Q16620); assay: Inhibition of recombinant human TRKB at 10 uM for 10 mins followed by substrate addition in presence of ATP and measured after 60 mins by HTRF assay; conditions: time 70.0 min
BDNF/NT-3 growth factors receptor (Homo sapiens), sequence (Q16620 32-822 limits assumed): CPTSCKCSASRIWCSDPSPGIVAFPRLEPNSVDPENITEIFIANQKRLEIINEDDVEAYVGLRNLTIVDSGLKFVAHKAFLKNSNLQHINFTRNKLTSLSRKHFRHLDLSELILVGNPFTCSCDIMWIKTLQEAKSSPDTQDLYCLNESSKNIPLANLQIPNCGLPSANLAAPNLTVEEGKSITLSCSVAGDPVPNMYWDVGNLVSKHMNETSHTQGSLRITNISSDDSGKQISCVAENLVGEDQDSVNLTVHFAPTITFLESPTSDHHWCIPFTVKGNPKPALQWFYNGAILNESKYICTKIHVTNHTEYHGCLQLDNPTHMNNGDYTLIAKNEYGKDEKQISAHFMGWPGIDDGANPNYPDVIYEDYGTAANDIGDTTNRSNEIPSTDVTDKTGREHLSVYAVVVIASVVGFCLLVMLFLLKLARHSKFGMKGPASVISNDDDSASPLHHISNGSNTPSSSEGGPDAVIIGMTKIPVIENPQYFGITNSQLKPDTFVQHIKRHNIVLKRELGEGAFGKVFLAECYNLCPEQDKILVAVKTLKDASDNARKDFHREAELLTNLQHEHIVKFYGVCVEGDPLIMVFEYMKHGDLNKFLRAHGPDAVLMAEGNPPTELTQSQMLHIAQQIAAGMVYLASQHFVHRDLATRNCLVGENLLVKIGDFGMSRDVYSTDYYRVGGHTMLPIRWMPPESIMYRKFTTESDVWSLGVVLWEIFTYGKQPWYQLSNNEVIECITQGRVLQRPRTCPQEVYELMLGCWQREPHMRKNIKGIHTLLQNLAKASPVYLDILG

[12] = molecular target: BDNF/NT-3 growth factors receptor (Homo sapiens) (UniProt Q16620); assay: Inhibition of recombinant human TRKB at 10 uM for 10 mins followed by substrate addition in presence of ATP and measured after 100 mins by ADP-Glo kinase assay; conditions: time 110.0 min
K562 [13] = assay: Antiproliferative activity against human K562 cells assessed as inhibition of cell growth incubated for 48 hrs by MTT assay; format: functional, cell-based; conditions: K562, 48 h
BaF3 [14] = assay: Antiproliferative activity against mouse BaF3 cells expressing wild type Bcr-Abl assessed as inhibition of cell growth incubated for 72 hrs by CellTiter-Glo luminescent assay; format: functional, cell-based; conditions: BaF3, 72 h
K562 [15] = assay: Induction of apoptosis in human K562 cells assessed as necrotic cells at 5 uM incubated for 48 hrs by Annexin V-FITC/PI staining based flow cytometry analysis (Rvb= 0.09%); format: functional
[16] = molecular target: Platelet-derived growth factor receptor alpha (Homo sapiens) (UniProt P16234); assay: Inhibition of recombinant human PDGFRalpha at 10 uM for 10 mins followed by substrate addition in presence of ATP and measured after 60 mins by HTRF assay; conditions: time 70.0 min
K-562R = assay: Antiproliferative activity against human K-562R cells expressing Bcr-Abl T315I mutant assessed as inhibition of cell growth incubated for 48 hrs by MTT assay; format: functional, cell-based
K562 [17] = assay: Induction of apoptosis in human K562 cells assessed as late apoptotic cells at 10 uM incubated for 48 hrs by Annexin V-FITC/PI staining based flow cytometry analysis (Rvb= 14.66%); format: functional
K562 [18] = assay: Induction of apoptosis in human K562 cells assessed as viable cells at 5 uM incubated for 48 hrs by Annexin V-FITC/PI staining based flow cytometry analysis (Rvb=80.89%); format: functional; conditions: read-out: Activity
[19] = molecular target: Vascular endothelial growth factor receptor 2 (Homo sapiens) (UniProt P35968); assay: Inhibition of recombinant human KDR at 10 uM for 10 mins followed by substrate addition in presence of ATP and measured after 60 mins by HTRF assay; conditions: time 70.0 min
Vascular endothelial growth factor receptor 2 (Homo sapiens), sequence (P35968 whole entry): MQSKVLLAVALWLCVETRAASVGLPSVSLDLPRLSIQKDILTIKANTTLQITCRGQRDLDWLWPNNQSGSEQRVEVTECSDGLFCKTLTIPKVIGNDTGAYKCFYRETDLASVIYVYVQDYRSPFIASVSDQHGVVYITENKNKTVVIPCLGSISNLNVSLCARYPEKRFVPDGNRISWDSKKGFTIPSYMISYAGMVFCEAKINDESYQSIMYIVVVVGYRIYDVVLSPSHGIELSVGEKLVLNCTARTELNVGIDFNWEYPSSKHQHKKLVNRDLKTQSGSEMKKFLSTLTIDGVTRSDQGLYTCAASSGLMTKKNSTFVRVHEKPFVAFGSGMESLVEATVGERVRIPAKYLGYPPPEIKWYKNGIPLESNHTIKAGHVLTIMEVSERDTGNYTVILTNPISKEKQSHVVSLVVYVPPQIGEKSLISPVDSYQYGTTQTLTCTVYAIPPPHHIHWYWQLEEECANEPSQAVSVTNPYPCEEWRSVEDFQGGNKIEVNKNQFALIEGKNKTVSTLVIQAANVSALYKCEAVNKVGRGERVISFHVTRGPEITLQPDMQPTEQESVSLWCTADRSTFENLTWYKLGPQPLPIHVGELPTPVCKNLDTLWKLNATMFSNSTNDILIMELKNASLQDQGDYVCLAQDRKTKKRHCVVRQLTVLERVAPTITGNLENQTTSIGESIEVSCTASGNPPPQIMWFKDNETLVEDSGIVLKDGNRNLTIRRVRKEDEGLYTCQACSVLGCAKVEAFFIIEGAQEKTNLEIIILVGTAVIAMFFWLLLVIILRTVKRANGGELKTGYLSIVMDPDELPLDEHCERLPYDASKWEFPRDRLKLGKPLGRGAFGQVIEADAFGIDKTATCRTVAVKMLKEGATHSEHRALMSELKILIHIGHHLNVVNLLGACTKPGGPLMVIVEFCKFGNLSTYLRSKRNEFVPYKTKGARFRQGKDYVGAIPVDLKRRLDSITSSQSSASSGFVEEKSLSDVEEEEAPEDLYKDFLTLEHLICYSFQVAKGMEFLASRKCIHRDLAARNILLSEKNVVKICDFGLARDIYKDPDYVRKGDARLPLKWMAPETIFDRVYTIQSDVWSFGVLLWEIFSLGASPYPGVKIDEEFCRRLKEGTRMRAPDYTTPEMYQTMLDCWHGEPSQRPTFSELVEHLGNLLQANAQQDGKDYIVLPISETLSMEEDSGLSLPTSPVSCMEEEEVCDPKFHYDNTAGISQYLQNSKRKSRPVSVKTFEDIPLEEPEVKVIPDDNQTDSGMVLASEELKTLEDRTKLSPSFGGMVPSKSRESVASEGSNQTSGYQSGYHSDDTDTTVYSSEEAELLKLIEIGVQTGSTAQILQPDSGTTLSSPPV

K562/Adr = assay: Antiproliferative activity against human Adriamycin-resistant K562/Adr cells assessed as inhibition of cell growth incubated for 48 hrs by MTT assay; format: functional, cell-based
[20] = molecular target: Tyrosine-protein kinase receptor UFO (Homo sapiens) (UniProt P30530); assay: Inhibition of recombinant human AXL at 10 uM for 10 mins followed by substrate addition in presence of ATP and measured after 100 mins by ADP-Glo kinase assay; conditions: time 110.0 min
Tyrosine-protein kinase receptor UFO (Homo sapiens), sequence (P30530 whole entry): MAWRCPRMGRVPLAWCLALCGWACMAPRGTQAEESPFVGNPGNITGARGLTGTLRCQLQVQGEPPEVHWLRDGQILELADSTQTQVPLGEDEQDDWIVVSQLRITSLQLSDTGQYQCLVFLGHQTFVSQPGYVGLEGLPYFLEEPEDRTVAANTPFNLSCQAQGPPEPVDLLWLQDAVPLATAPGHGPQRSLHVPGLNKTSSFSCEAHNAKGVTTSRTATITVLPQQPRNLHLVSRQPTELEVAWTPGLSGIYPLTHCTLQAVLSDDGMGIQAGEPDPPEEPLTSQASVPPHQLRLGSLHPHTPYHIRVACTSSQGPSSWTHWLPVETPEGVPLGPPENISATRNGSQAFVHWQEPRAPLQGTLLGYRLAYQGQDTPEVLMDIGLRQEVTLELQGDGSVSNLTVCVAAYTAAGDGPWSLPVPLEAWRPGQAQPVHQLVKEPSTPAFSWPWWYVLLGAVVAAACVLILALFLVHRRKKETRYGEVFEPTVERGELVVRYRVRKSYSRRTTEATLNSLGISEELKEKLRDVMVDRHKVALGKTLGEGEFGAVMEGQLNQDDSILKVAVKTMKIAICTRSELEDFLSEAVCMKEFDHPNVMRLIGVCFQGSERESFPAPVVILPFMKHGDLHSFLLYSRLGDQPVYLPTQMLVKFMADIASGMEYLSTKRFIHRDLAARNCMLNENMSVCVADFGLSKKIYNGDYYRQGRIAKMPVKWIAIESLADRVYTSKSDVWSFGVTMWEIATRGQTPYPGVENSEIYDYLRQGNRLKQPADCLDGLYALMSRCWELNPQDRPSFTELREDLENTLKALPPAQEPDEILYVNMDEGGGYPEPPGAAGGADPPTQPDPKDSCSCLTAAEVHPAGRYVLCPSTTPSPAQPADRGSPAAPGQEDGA

BaF3 [21] = assay: Antiproliferative activity against mouse BaF3 cells expressing Bcr-Abl T315I mutant assessed as inhibition of cell growth at 30 uM incubated for 72 hrs by CellTiter-Glo luminescent assay; format: functional

## O=C(Nc1nc2ccc(-c3cn([C@@H]4CN[C@H](C(=O)Nc5ccc(Cl)cc5Cl)C4)nn3)nc2s1)C1CC1
K562 [1]
  Activity: 29.63%
[2]
  inhibition: 41.1%
K562 [3]
  Activity: 0.01%
K562 [4]
  Activity: 7.16%
BaF3 [5]
  pIC50: 6.17
K562 [6]
  Activity: 3.59%
[7]
  inhibition: 87.9%
K562 [8]
  Activity: 0.06%
K562 [9]
  Activity: 37.12%
[10]
  inhibition: 44.2%
[11]
  inhibition: 54.3%
[12]
  inhibition: 54.3%
K562 [13]
  pIC50: 6.13
BaF3 [14]
  pIC50: 6.89
K562 [15]
  Activity: 0.03%
[16]
  inhibition: 87.9%
K-562R
  pIC50: 5.72
K562 [17]
  Activity: 43.12%
K562 [18]
  viability at 5 µM: 66.5%
[19]
  inhibition: 47.7%
K562/Adr
  pIC50: 5.61
[20]
  inhibition: 56.4%
BaF3 [21]
  inhibition at 30 µM: 87.6%
